This passage reports GI50 and IC50 results from US20260159486A1, “BENZO[H]QUINAZOLINE-4-AMINE DERIVATIVES FOR THE TREATMENT OF CANCER” (Redona Therapeutics, Inc., priority 2021, published 2026).

By GI50 is commonly meant the concentration that inhibits growth by half. As usually defined, the IC50 is the concentration that gives 50% inhibition.

For one experiment, the system named is MDA-MB-231 cells. In words: MDA-MB-231 proliferation assay. The format is cell-based. The note with it: Homo sapiens, MDA-MB-231, 72 h, YO-PRO-1 Iodide readout. The source says:
(§1) MDA-MB-231 and CAL-51 Proliferation Assay
(§2) Cells (MDA-MB-231 (American Type Culture Collection (ATCC), #HTB-26) or CAL-51 (Deutsche Sammlung von Mikroorganismen und Zellkulturen (DSMZ), #ACC302) as applicable) were cultivated in DMEM High Glucose (4.5 g/L) with L-Glutamine (BioConcept, cat. no. 1-26F03-I) supplemented with 1% Na-pyruvate (Sigma, cat. no. S8636), 1% Penicillin-Streptomycin (BioConcept, cat. no. 4-01F00H), and 10% FBS (Sigma, cat. no. F9665) using standard techniques. Cells were seeded in black, clear-bottom 384 well plates for tissue culture (Greiner Bio-One, cat. no. 781091) at a density of 750 cells per well in 20 μL medium and the plates were incubated overnight at 37° C. with 5% CO2 prior to treatment. Experimental compounds were serially diluted in DMSO to 200× the desired final concentrations. The solutions were then diluted 1:40 with culture medium and 5 μL aliquots were mixed into the wells containing the cells. The final concentration of DMSO was 0.5%. The plates were incubated for 72 hours and cell numbers were then measured using YO-PRO™-1 Iodide (ThermoFisher Scientific, cat. no. Y3603) essentially as recommended by the manufacturer. Briefly, a 12.5 μM solution of YO-PRO™_1 Iodide in 5× YO—PRO buffer (100 mM Na-citrate, 130 mM NaCl, pH 4) was combined with an equal volume of lysis buffer (0.6% NP-40, 30 mM EDTA, 30 mM EGTA, 0.33× YO—PRO buffer) and 12.5 μL of the mixture were dispensed into each well. The plates were incubated at room temperature in the dark for 30 minutes. Fluorescence intensity signals were then measured on a Synergy 4 reader (BioTek) using 485/20 nm and 530/25 nm filters for the excitation and emission, respectively. Relative proliferation values were calculated by normalizing the raw data using DMSO-treated cells (100% proliferation) and the signals obtained from cells that were evaluated at the time of compound addition (0% proliferation). The concentration-response data were fitted to a sigmoidal 4-parameter logistic model with the maximum constrained to 100%. GI50 values were calculated from the curves as the compound concentrations reducing proliferation to 50%.

The next experiment deals with T1, recombinant human CLK3 (Homo sapiens, UniProt P49761).
T1 construct: purchased Thermo Fisher Scientific PV3826
T1 sequence (P49761 whole entry): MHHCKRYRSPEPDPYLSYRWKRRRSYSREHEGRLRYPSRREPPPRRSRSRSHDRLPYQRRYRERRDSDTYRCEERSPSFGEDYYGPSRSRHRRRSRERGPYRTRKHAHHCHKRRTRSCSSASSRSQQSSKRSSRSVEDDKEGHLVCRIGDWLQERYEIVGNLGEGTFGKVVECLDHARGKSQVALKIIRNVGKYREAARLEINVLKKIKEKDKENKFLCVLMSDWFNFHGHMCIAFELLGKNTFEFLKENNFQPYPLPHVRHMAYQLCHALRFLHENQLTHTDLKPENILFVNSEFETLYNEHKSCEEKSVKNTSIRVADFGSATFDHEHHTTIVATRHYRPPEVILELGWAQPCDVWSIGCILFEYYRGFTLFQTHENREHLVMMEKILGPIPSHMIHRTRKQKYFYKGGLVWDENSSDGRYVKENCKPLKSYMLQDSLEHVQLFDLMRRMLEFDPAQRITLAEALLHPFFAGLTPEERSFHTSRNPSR
The experiment in a line: CLK3 kinase assay (LANCE Ultra). The class given is biochemical. The note with it: CLK3 0.5 nM, ATP 300 μM, 3 hours at 30° C. Here is the method: CLK3 kinase activity was measured using the LANCE® Ultra technology (PerkinElmer) essentially as recommended by the supplier. Briefly, 2.5 μL of test sample at 4× the desired final concentration in 4% DMSO were dispensed into white, low volume, round bottom, 384 well plates (Corning, cat. no. 4512). 5 μL of a mixture containing recombinant human CLK3 (Thermo Fisher Scientific, cat. no. PV3826) and the labeled peptide substrate ULight™-CREBtide (PerkinElmer, cat. no. TRF0107) prepared in 1.33× kinase buffer (Thermo Fisher Scientific, cat. no. PV3189) were then added. Finally, the reactions were started by adding 2.5 μL of a 4× solution of ATP in kinase buffer. The plates were sealed with adhesive foils and incubated for 3 hours at 30° C. in the dark. The final concentrations of CLK3, ULight™-CREBtide, and ATP were 0.5 nM, 50 nM, and 300 μM, respectively. 5 μL of 40 mM EDTA were then added to terminate the reactions. The Eu-anti-phospho-CREB antibody (PerkinElmer, cat. no. TRF0200) diluted in LANCE® detection buffer (PerkinElmer, cat. no. CR97) was then added to a final concentration of 2 nM and the reactions were incubated for 1 hour at room temperature in the dark. The signals were measured using a Synergy 4 reader (BioTek) with a 320/80 nm filter for the excitation and 620/10 nm and 665/8 nm filters for the donor and acceptor emission, respectively. Relative inhibition values were calculated by normalizing the raw data using solvent control wells (0% inhibition) and wells that received no ATP (100% inhibition). IC50 values were calculated by fitting the concentration-response data to a sigmoidal 4-parameter logistic model. IC50 values for CLK3 are determined from duplicate measurements at ten different concentrations (serial 1:3 dilutions).

In another experiment the test system is CAL-51 cells. In words: CAL-51 proliferation assay. The class given is cell-based. Particulars: Homo sapiens, CAL-51, 72 h, YO-PRO-1 Iodide readout.
Excerpt: as §1, §2

`CCCN(CCO)c1c(O[C@H]2CC[C@@H](N)CC2)ccc2c1CC(C)(C)c1c(N)ncnc1-2` [Example 23, 2-[[4-amino-8-(cis-4-aminocyclohexoxy)-5,5-dimethyl-6H-benzo[h]quinazolin-7-yl]-propyl-amino]ethanol]: the concentration for 50% growth inhibition (GI50) in the experiment with MDA-MB-231 cells and with CAL-51 cells was 100 to 2000 nM each time. For the same molecule, the IC50 on recombinant human CLK3 was below 30 nM.
For the molecule `CC(C)CN(C)c1c(O[C@H]2CC[C@H](N)CC2)ccc2c1CC(C)(C)c1c(N)ncnc1-2` [Example 106, 8-(trans-4-aminocyclohexoxy)-N7-isobutyl-N7,5,5-trimethyl-6H-benzo[h]quinazoline-4,7-diamine], the GI50 in the experiment on MDA-MB-231 cells and with CAL-51 cells was 100 to 2000 nM throughout. Also, at recombinant human CLK3, the IC50 was in the range of 30 to 100 nM.
Regarding `CC1(C)Cc2c(ccc(Br)c2NC[C@@H]2CNC(=O)O2)-c2ncnc(N)c21` [Example 121, (5R)-5-[[(4-amino-8-bromo-5,5-dimethyl-6H-benzo[h]quinazolin-7-yl)amino]methyl]oxazolidin-2-one], the concentration for 50% growth inhibition (GI50) with MDA-MB-231 cells and in the experiment on CAL-51 cells was below 100 nM each time. Besides, at recombinant human CLK3, the half-maximal inhibitory concentration (IC50) is below 30 nM.
For `C/C(=C\CO)c1c(O[C@H]2CC[C@H](N)CC2)ccc2c1CC(C)(C)c1c(N)ncnc1-2` [Example 98, (E)-3-[4-amino-8-(trans-4-aminocyclohexoxy)-5,5-dimethyl-6H-benzo[h]quinazolin-7-yl]but-2-en-1-ol], the GI50 in the experiment with MDA-MB-231 cells was 100 to 2000 nM; in the experiment on CAL-51 cells, below 100 nM. On recombinant human CLK3, the half-maximal inhibitory concentration (IC50) was below 30 nM.
For `COc1ccc2c(c1N1CC(O)C1)CC(C)(C)c1c(N)ncnc1-2` [Example 25, 1-(4-amino-8-methoxy-5,5-dimethyl-6H-benzo[h]quinazolin-7-yl)azetidin-3-ol] the same measures were 100 to 2000 nM, 100 to 2000 nM and 101 to 1000 nM.
In the case of `COc1ccc2c(c1NC[C@@H]1CNC(=O)O1)CC(C)(C)c1c(N)ncnc1-2` [Example 82, (5R)-5-[[(4-amino-8-methoxy-5,5-dimethyl-6H-benzo[h]quinazolin-7-yl)amino]methyl]oxazolidin-2-one], the figures for the 50% growth inhibitory concentration (GI50) with MDA-MB-231 cells and with CAL-51 cells were 100 to 2000 nM and below 100 nM, respectively. On recombinant human CLK3, the 50% inhibitory concentration (IC50) is below 30 nM.
The like results for `CC1(C)Cc2c(ccc(O[C@H]3CC[C@H](N)CC3)c2N2CCC(C#N)C2)-c2ncnc(N)c21` (stereo partly drawn) [Example 66, 1-[4-amino-8-(trans-4-aminocyclohexoxy)-5,5-dimethyl-6H-benzo[h]quinazolin-7-yl]pyrrolidine-3-carbonitrile] were, in that order, below 100 nM, below 100 nM and below 30 nM.
For `COc1ccc2c(c1N1CC(CO)C1)CC(C)(C)c1c(N)ncnc1-2` [Example 28, [1-(4-amino-8-methoxy-5,5-dimethyl-6H-benzo[h]quinazolin-7-yl)azetidin-3-yl]methanol] the same measures were 100 to 2000 nM, 100 to 2000 nM and 101 to 1000 nM.
The like results for `COCCN[C@H]1CC[C@H](Oc2ccc3c(c2N(C)CCC#N)CC(C)(C)c2c(N)ncnc2-3)CC1` [Example 53, 3-[[4-amino-8-[trans-4-(2-methoxyethylamino)cyclohexoxy]-5,5-dimethyl-6H-benzo[h]quinazolin-7-yl]-methyl-amino]propanenitrile] were, in that order, below 100 nM, below 100 nM and below 30 nM.
`CC1(C)Cc2c(ccc(O[C@H]3CC[C@H](N)CC3)c2S(=O)(=O)CCC#N)-c2ncnc(N)c21` [Example 112, 3-[[4-amino-8-(trans-4-aminocyclohexoxy)-5,5-dimethyl-6H-benzo[h]quinazolin-7-yl]sulfonyl]propanenitrile]: the GI50 in the experiment with MDA-MB-231 cells is above 2000 nM; in the experiment on CAL-51 cells, 100 to 2000 nM. For the same molecule, the IC50 on recombinant human CLK3 lay in the range of 30 to 100 nM.
For `Nc1ncnc2c1C1(CCCC1)Cc1c-2ccc(O[C@H]2CC[C@H](N)CC2)c1NCCO` [Example 60, 2-[[4-amino-8-(4-trans-aminocyclohexoxy)spiro[6H-benzo[h]quinazoline-5,1′-cyclopentane]-7-yl]amino]ethanol] the same measures were 100 to 2000 nM, 100 to 2000 nM and 30 to 100 nM.
For `CCCCN(C)c1c(O[C@H]2CC[C@H](N)CC2)ccc2c1CC(C)(C)c1c(N)ncnc1-2` [Example 100, 8-(trans-4-aminocyclohexoxy)-N7-butyl-N7,5,5-trimethyl-6H-benzo[h]quinazoline-4,7-diamine], the GI50 with MDA-MB-231 cells and with CAL-51 cells was 100 to 2000 nM throughout. Moreover, the half-maximal inhibitory concentration (IC50) at recombinant human CLK3 fell in the range of 101 to 1000 nM.
`CC1(C)Cc2c(ccc(Br)c2N(CCC#N)C[C@@H]2CNC(=O)O2)-c2ncnc(N)c21` [Example 132, 3-[(4-amino-8-bromo-5,5-dimethyl-6H-benzo[h]quinazolin-7-yl)-[[(5S)-2-oxooxazolidin-5-yl]methyl]amino]propanenitrile]: the 50% growth inhibitory concentration (GI50) in the experiment on MDA-MB-231 cells and in the experiment on CAL-51 cells was 100 to 2000 nM each time. In addition, the concentration for half-maximal inhibition (IC50) at recombinant human CLK3 is below 30 nM.
With `CC(CCC#N)c1c(O[C@H]2CC[C@H](N)CC2)ccc2c1CC(C)(C)c1c(N)ncnc1-2` (stereo partly drawn) [Example 97, 4-[4-amino-8-(trans-4-aminocyclohexoxy)-5,5-dimethyl-6H-benzo[h]quinazolin-7-yl]pentanenitrile], the 50% growth inhibitory concentration (GI50) in the experiment on MDA-MB-231 cells and in the experiment with CAL-51 cells was below 100 nM in each case. Moreover, the IC50 on recombinant human CLK3 was below 30 nM.
For `CC1(C)Cc2c(ccc(O[C@H]3CC[C@H](N)CC3)c2N2CCCS2(=O)=O)-c2ncnc(N)c21` [Example 119, 8-(trans-4-aminocyclohexoxy)-7-(1,1-dioxo-1,2-thiazolidin-2-yl)-5,5-dimethyl-6H-benzo[h]quinazolin-4-amine], the 50% growth inhibitory concentration (GI50) in the experiment on MDA-MB-231 cells and in the experiment on CAL-51 cells was 100 to 2000 nM in each case. For the same molecule, the half-maximal inhibitory concentration (IC50) at recombinant human CLK3 was below 30 nM.
Regarding `CN(c1c(O[C@H]2CC[C@H](N)CC2)ccc2c1CC(C)(C)c1c(N)ncnc1-2)S(=O)(=O)CCO` [Example 44, N-[4-amino-8-(4-trans-aminocyclohexoxy)-5,5-dimethyl-6H-benzo[h]quinazolin-7-yl]-2-hydroxy-N-methyl-ethanesulfonamide], the GI50 with MDA-MB-231 cells and in the experiment with CAL-51 cells was 100 to 2000 nM in each case. For the same molecule, the IC50 on recombinant human CLK3 is below 30 nM.
Consider `CN(Cc1ccncc1)c1c(O[C@H]2CC[C@H](N)CC2)ccc2c1CC(C)(C)c1c(N)ncnc1-2` [Example 101, 8-(trans-4-aminocyclohexoxy)-N7,5,5-trimethyl-N7-(4-pyridylmethyl)-6H-benzo[h]quinazoline-4,7-diamine], for which the concentration for 50% growth inhibition (GI50) in the experiment with MDA-MB-231 cells and in the experiment with CAL-51 cells was 100 to 2000 nM throughout. Moreover, on recombinant human CLK3, the IC50 lay in the range of 101 to 1000 nM.
Consider `COc1ccc2c(c1N)CC(C)(C)c1c(N)ncnc1-2` [Example 2, 8-methoxy-5,5-dimethyl-6H-benzo[h]quinazoline-4,7-diamine], for which the concentration for 50% growth inhibition (GI50) in the experiment on MDA-MB-231 cells and in the experiment on CAL-51 cells was 100 to 2000 nM throughout. In addition, at recombinant human CLK3, the concentration for half-maximal inhibition (IC50) was 30 to 100 nM.
Regarding `CSCCN(C)c1c(O[C@H]2CC[C@@H](N)CC2)ccc2c1CC(C)(C)c1c(N)ncnc1-2` [Example 31, 8-(cis-4-aminocyclohexoxy)-N7,5,5-trimethyl-N7-(2-methylsulfanylethyl)-6H-benzo[h]quinazoline-4,7-diamine], the GI50 was 100 to 2000 nM with MDA-MB-231 cells and below 100 nM in the experiment with CAL-51 cells. Also, the IC50 at recombinant human CLK3 was in the range of 30 to 100 nM.
